Source: patent US9121026B2 (priority 2004, dated 2015)
“And” between values parts separate entries of the source, which are not always exact repeats. Identical values can stand only once. “Also recorded” adds a separate entry of the source.

Assays:
Format in all cases: cell-based, Saccharomyces cerevisiae
[1] = test system: RE700A e PPDR5-HXT7 (ET[PDR]); assay: Growth inhibition of ET[PDR] by 2-DG; conditions: 20 h 28° C., maltose, in percent of growth of RE700A
Description: (A) RE700A, ECFP and ET[PDR] were incubated 20 h at 28° C. with maltose (2% (w/v)) as the sole carbon source in the presence of the indicated 2-DG concentrations. The optical density was measured at 600 nm every 15 minutes and the integral under the growth curve was calculated. Inhibition of growth of ECFP and ET[PDR] is shown in percent of growth of RE700A. Growth of ECFP was inhibited by 39% at 0.005% (w/v) 2-DG, by 78% at 0.01% (w/v) 2-DG, by 91% at 0.03% (w/v) 2-DG and by 93% at 0.05% (w/v) 2-DG. Growth of ET[PDR] was inhibited by 52% at 0.005% (w/v) 2-DG, by 87% at 0.01% (w/v) 2-DG, by 94% at 0.03% (w/v) 2-DG and by 96% at 0.05% (w/v) 2-DG.
(§1) Strain growth: The growth of the strains in liquid medium was determined by measuring the optical density at 600 nm. To obtain growth curves, measurements were performed every 15 min. Alternatively, start and endpoint (after 12-16 h) measurements were carried out.

[2] = test system: RE700A i PPDR5-HXT7 (IT[PDR]); assay: Growth inhibition of IT[PDR] by 2-DG; conditions: 20 h 28° C., maltose; for Inhibition of growth: IT[PDR], in percent of growth of RE700A
Description: (B) RE700A, ICFP and IT[PDR] were incubated 20 h at 28° C. with maltose (2% (w/v)) as the sole carbon source and the indicated 2-DG concentrations. The optical density was measured at 600 nm every 15 minutes and the integral under the growth curve is calculated. Inhibition of growth of ICFP and IT[PDR] is shown in percent of growth of RE700A. Growth of ICFP was inhibited by 15% at 0.01% (w/v) 2-DG, by 74% at 0.03% (w/v) 2-DG, by 80% at 0.05% (w/v) 2-DG and by 83% at 0.1% (w/v) 2-DG. Growth of IT[PDR] was inhibited by 21% at 0.01% (w/v) 2-DG, by 79% at 0.03% (w/v) 2-DG, by 88% at 0.05% (w/v) 2-DG and by 96% in 0.1% (w/v) 2-DG.
(§2) (A) Growth inhibition of RE700A i PPDR5-HXT7 (IT[PDR]), RE700A Δpdr1 tok1::PPDR5-HXT7, RE700A Δpdr3 tok1::PPDR5-HXT7 and RE700A Δpdr1,pdr3 tok1::PPDR5-HXT7 at increasing 2-DG concentrations. RE700A i PPDR5-HXT7 (IT[PDR]), RE700A Δpdr1 tok1::PPDR5-HXT7, RE700A Δpdr3 tok1::PPDR5-HXT7 and RE700A Δpdr1,pdr3 tok1::PPDR5-HXT7 were incubated 20 h at 28° C. with Maltose (2% (w/v)) as the sole carbon source and 2-DG concentrations as indicated. The optical density was measured at 600 nm every 15 minutes and the integral under the growth curve was calculated. Inhibition of growth caused by 2-DG is shown in percent. The growth of the strain RE700A tok1::PPDR5-HXT7 (IT[PDR]) was inhibited by 50% at 0.02% (w/v) 2-DG. Growth of the strains RE700A Δpdr1 tok1::PPDR5-HXT7 and RE700A Δpdr3 tok1::PPDR5-HXT7 was inhibited by 50% at 0.026% (w/v) 2-DG.
as §1

[3] = test system: RE700A Δpdr1,pdr3 tok1::PPDR5-HXT7; assay: Growth inhibition of RE700A Δpdr1,pdr3 tok1::PPDR5-HXT7 by 2-DG; conditions: RE700A Δpdr1,pdr3 tok1::PPDR5-HXT7, up to a 2-DG concentration of 0.03% (w/v)
Description: as §2
All strains expressing HXT7 were tested for sensitivity to 2-DG. The strains expressing GFP under the control of PPDR5 were additionally analysed for GFP fluorescence in comparison to RE700Ae PPDR5-GFP (strain CQ[PDR]).

[4] = test system: RE700A e PCDR1-HXT7 (ET[CDR1]); assay: Growth inhibition of ET[CDR1] by 2-DG; conditions: liquid media, 20 h 28° C., compared to growth in the absence of 2-DG
Description: FIG. 6: Growth inhibition of RE700A, ET[CDR1] and ET[CDR2] in the presence of increasing 2-DG concentrations after 20 h incubation at 28° C. for in liquid medium. RE700A, ET[CDR1] and ET[CDR2] were incubated 20 h at 28° C. with maltose (2% (w/v)) as the sole carbon source in the presence of increasing 2-DG concentrations in liquid medium. The optical density was measured at 600 nm semi-continuously every 15 minutes and the integral under the growth curve was calculated. Inhibition of growth is shown in percent compared to growth in the absence of 2-DG. Growth of ET[CDR1] was inhibited by 92% at a 2-DG concentration in liquid media of 0.05% (w/v), by 94% at a 2-DG concentration in liquid media of 0.075% (w/v), by 93% at a 2-DG concentration in liquid media of 0.1% (w/v) and by 95% at a 2-DG concentration of 0.2% (w/v). Growth of ET[CDR2] was inhibited by 50% at a 2-DG concentration in liquid media of 0.05% (w/v), by 70% at a 2-DG concentration in liquid media of 0.075% (w/v), by 70% at a 2-DG concentration in liquid media of 0.1% (w/v) and by 84% at a 2-DG concentration of 0.2% (w/v).
(1) Episomal screening system for inhibitors of PCDR1: S. cerevisiae strain RE700A was transformed with plasmids pY-PCDR1-HXT7 and pY-PCDR1-GFP yielding strains ET[CDR1] and CQ[CDR1] (for details see Examples 1 and 2, for the complete genotype refer to Table 1). The inhibition of growth of ET[CDR1] by 2-DG was tested. The growth of this strain was inhibited to more than 90% at a 2-DG concentration of 0.05% (w/v) (FIG. 6). To screen for inhibitors of the PCDR1, the test strain ET[CDR1] can be incubated in selective YNB medium with 2% (w/v) maltose as the carbon source and 0.05% (w/v) 2-DG. Under these non-permissive conditions the growth of the test strain ET[CDR1] was inhibited when PCDR1 was active (FIG. 6).

## O=CC[C@@H](O)[C@H](O)[C@H](O)CO [2-DG, 2-deoxy-glucose]
[1]; 0.005% (w/v) 2-DG
  Inhibition of growth: 52%
[1]; 0.01% (w/v) 2-DG
  Inhibition of growth: 87%
[1]; 0.03% (w/v) 2-DG
  Inhibition of growth: 94%
[1]; 0.05% (w/v) 2-DG
  Inhibition of growth: 96%
[2]; 0.01% (w/v) 2-DG
  Inhibition of growth: 21%
[2]; 0.03% (w/v) 2-DG
  Inhibition of growth: 79%
[2]; 0.05% (w/v) 2-DG
  Inhibition of growth: 88%
[2]; 0.1% (w/v) 2-DG
  Inhibition of growth: 96%
[2]; RE700A tok1::PPDR5-HXT7 (IT[PDR]), liquid media
  2-DG concentration for 50% growth inhibition: 0.021 % (w/v) and 0.02 % (w/v)
[3]
  Growth inhibition / 2-DG sensitivity: did not show significant 2-DG sensitivity; also recorded: not significantly inhibited
[4]; 0.075% (w/v) 2-DG
  Inhibition of growth: 94%
[4]; 0.1% (w/v) 2-DG
  Inhibition of growth: 93%
[4]; 0.2% (w/v) 2-DG
  Inhibition of growth: 95%
